Literature values as cited in patent US8481600B2, “Formulation of aspirin that is stable and showing minimal hydrolysis for parenteral administration for the treatment of cardiovascular and other disease states” (Academic Pharmaceuticals, Inc., priority 2007, dated 2013).

Assays:
[1] = cited from earlier work
[2] = cited from earlier work; remark: listed apart in the source
[3] = cited from earlier work; remark: listed apart in the source

CC(=O)Oc1ccccc1C(=O)O [Lysine acetylsalicylate]
water solubility [1]: readily water soluble
shortest half life after IV administration ([2]; IV): 7.5 min
metabolism and hydrolysis to salicylic acid ([2]; in vivo): rapid
treatment of acute migraine headaches ([3]; human, in vivo): effective
incidence of sensitivity that can lead to anaphylactic shock ([3]; patients): up to 5%
